The values below come from PMC12732581, “Molecular and System-Level Characterization of MMP12 Suppression in Lung Cancer: A Combined Bioinformatics and Molecular Approach” (International Journal of Molecular Sciences, 2025).

For one assay, the system named is A549 lung cancer cells. Description: MTT cell viability assay, A549. The assay is classed as cell-based, human. The procedure:
(§1) To evaluate the impact of MMP12 inhibitors on lung cancer cell lines, an MTT assay was performed on A549, H1299, and H661 cells exposed to varying concentrations of inhibitors over 48, 72, and 96 h.
(§2) The lung cancer cell lines referenced as A549, H1299, and H661 were acquired from the American Type Culture Collection (ATCC, Manassas, VA, USA). Fibroblast cells of dermal origin were used as a model for normal human tissue, which were also purchased from ATCC. A549, H1299, and H661 cells were maintained in the RPMI culture medium, while fibroblast cells were maintained in the DMEM high glucose culture medium. Both RPMI and DMEM culture media were supplemented with 100 U/mL penicillin, 0.1 mg/mL streptomycin to prevent bacterial growth, 10% FBS to promote cell growth, and 2 mM L-glutamine as an energy source.
(§3) The 3-(4,5-dimethylthiazol-2-yl)-2,5-diphenyltetrazolium bromide (MTT) assay was employed to evaluate cell proliferation as previously noted. All experiments were performed in triplicate wells and were repeated at least twice independently. The percentage of the relative cell viability of treated cells versus the untreated cells (negative controls) was calculated using the following formula in Equation (1) (cell viability calculation):(1) Cell viability%=optical density of treated cells/optical density of untreated cells×100

A further assay deals with H1299 lung cancer cells. Description: MTT cell viability assay, H1299. It counts as cell-based, human. The procedure:
as §1, §2, §3
(Tetrazolium assays rely on reduction of a dye to a coloured formazan, in cell work by metabolically active cells.)

Another assay deals with H661 lung cancer cells. Description: MTT cell viability assay, H661. The assay is classed as cell-based, human. The method, then: as §1, §2, §3
The target in another assay is T1, recombinant human MMP12 (Homo sapiens, UniProt P39900).
T1 construct: purchased Abcam
As to the kind of experiment: MMP12 colorimetric thiopeptide enzyme inhibition assay (Abcam). The note with it: at 50 µM. It counts as biochemical. The procedure:
The enzyme inhibition potential of synthesized p-chlorocinnamic acid derivatives against MMP12 was assessed using the Abcam colorimetric assay.
The inhibitory activity of the newly synthesized compounds against MMP12 was assessed using a previously established enzymatic assay protocol, as described in our earlier study. In brief, we conducted a colorimetric thiopeptide-based inhibition assay for MMP12 using recombinant human MMP12 and the reference inhibitor NNGH as a positive control. The IC50 values were calculated using GraphPad Prism version 9 (GraphPad Software, San Diego, CA, USA).

The next assay has as its system H1299 cells. As to the kind of experiment: Annexin V-FITC/PI apoptosis assay (flow cytometry). Particulars: H1299, double IC50, 72 h.

T1 sequence (P39900 106-470): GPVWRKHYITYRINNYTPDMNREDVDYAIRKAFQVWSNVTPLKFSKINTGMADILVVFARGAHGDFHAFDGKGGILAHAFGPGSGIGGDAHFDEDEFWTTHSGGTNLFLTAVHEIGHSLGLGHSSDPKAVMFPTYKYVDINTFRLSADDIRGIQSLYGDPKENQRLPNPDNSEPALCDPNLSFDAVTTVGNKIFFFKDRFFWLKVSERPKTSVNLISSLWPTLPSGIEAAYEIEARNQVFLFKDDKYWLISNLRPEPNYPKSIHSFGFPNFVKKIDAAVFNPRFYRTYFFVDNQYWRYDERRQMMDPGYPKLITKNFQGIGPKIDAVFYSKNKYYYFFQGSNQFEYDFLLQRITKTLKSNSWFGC
Experimental for H1299 cells: Apoptosis was assessed using Annexin-V/PI staining, following the method described earlier with minor modifications [84]. […] After the treatment, the cells were collected and stained with Annexin-V-FITC and propidium iodide. The stained cells were then analyzed using a BD FACSCanto II flow cytometer (Becton, Dickinson and Company (BD), Franklin Lakes, NJ, USA) and FACSDiva software (Becton, Dickinson and Company (BD), Franklin Lakes, NJ, USA).

With `Cc1ccc(NC(=O)/C=C/c2ccc(Cl)cc2)c(C(=O)c2ccccc2)c1` [Compound C4], the IC50 in the assay on A549 lung cancer cells (A549, 48 h) worked out at 963 µM; in the assay with A549 lung cancer cells (A549, 72 h), 396 µM; in the assay with A549 lung cancer cells (A549, 96 h), 168 µM; with H1299 lung cancer cells (H1299, 48 h) it was 616 µM; in the assay on H1299 lung cancer cells (H1299, 72 h), 302 µM; in the assay with H1299 lung cancer cells (H1299, 96 h) it was 254 µM. In addition, the half-maximal inhibitory concentration (IC50) in the assay on H661 lung cancer cells (H661, 48 h) was determined as 562 µM; in the assay on H661 lung cancer cells (H661, 72 h) it was 319 µM; in the assay with H661 lung cancer cells (H661, 96 h), 146 µM. Moreover, the MMP12 enzyme inhibition on recombinant human MMP12 turned out to be 23.3%.
`Cc1ccc(C(=O)c2ccccc2NC(=O)/C=C/c2ccc(Cl)cc2)cc1` [Compound C6]: the 50% inhibitory concentration (IC50) was greater than 1000 µM in the assay with A549 lung cancer cells (A549, 48 h); greater than 1000 µM in the assay on A549 lung cancer cells (A549, 72 h); 830 µM in the assay with A549 lung cancer cells (A549, 96 h); 361 µM with H1299 lung cancer cells (H1299, 48 h); 268 µM with H1299 lung cancer cells (H1299, 72 h); 256 µM in the assay on H1299 lung cancer cells (H1299, 96 h). Besides, the concentration for half-maximal inhibition (IC50) in the assay with H661 lung cancer cells (H661, 48 h) was 448 µM; in the assay on H661 lung cancer cells (H661, 72 h), 260 µM; in the assay with H661 lung cancer cells (H661, 96 h), 270 µM. For the same compound, on recombinant human MMP12, the MMP12 enzyme inhibition came out at 21.3%.
Take `N.N.[Cl][Pt][Cl]` [Cisplatin, reference compound]: the “Necrosis (%) (Annexin−/PI+, Q1-UL)” value with H1299 cells (control 0.7) came out at 1.7%. The “Late Apoptosis (%) (Annexin+/PI+, Q1-UR)” value with H1299 cells (control 2.6) is recorded as 11.6%. Moreover, in the assay on H1299 cells (control 8.7), the “Early Apoptosis (%) (Annexin+/PI−, Q1-LR)” value amounted to 28.6%. Moreover, the “Total Apoptosis (%)” value with H1299 cells (control 11.3) stood at 40.2%.
For the compound `O=C(/C=C/c1ccc(Cl)cc1)Nc1cccc(C(=O)c2ccccc2)c1` [Compound C2], the 50% inhibitory concentration (IC50) is greater than 1000 µM in the assay with A549 lung cancer cells (A549, 48 h); greater than 1000 µM in the assay on A549 lung cancer cells (A549, 72 h); greater than 1000 µM in the assay with A549 lung cancer cells (A549, 96 h); 827 µM with H1299 lung cancer cells (H1299, 48 h); 692 µM in the assay on H1299 lung cancer cells (H1299, 72 h); 349 µM with H1299 lung cancer cells (H1299, 96 h). In addition, the half-maximal inhibitory concentration (IC50) with H661 lung cancer cells (H661, 48 h) was determined as 599 µM; with H661 lung cancer cells (H661, 72 h), 410 µM; with H661 lung cancer cells (H661, 96 h) it was 350 µM. For the same compound, the MMP12 enzyme inhibition on recombinant human MMP12 was found to be 35.0%.
For the compound `O=C(/C=C/c1ccc(Cl)cc1)Nc1ccc(Cl)cc1C(=O)c1ccccc1` [Compound C3], the IC50 in the assay with A549 lung cancer cells (A549, 48 h) was determined as 251 µM; in the assay on A549 lung cancer cells (A549, 72 h) it was 269 µM; with A549 lung cancer cells (A549, 96 h), 999 µM; in the assay with H1299 lung cancer cells (H1299, 48 h), 557 µM; with H1299 lung cancer cells (H1299, 72 h), 401 µM; in the assay on H1299 lung cancer cells (H1299, 96 h), 338 µM. Further, the IC50 was 571 µM in the assay on H661 lung cancer cells (H661, 48 h); 301 µM with H661 lung cancer cells (H661, 72 h); 203 µM in the assay with H661 lung cancer cells (H661, 96 h). The MMP12 enzyme inhibition at recombinant human MMP12 turned out to be 23.5%.
Turning to `O=C(/C=C/c1ccc(Cl)cc1)Nc1ccccc1C(=O)c1ccccc1` [Compound C5], the IC50 with A549 lung cancer cells (A549, 48 h) was greater than 1000 µM; in the assay on A549 lung cancer cells (A549, 96 h), 865 µM; in the assay on H1299 lung cancer cells (H1299, 48 h), 636 µM; in the assay with H1299 lung cancer cells (H1299, 72 h), 449 µM; with H1299 lung cancer cells (H1299, 96 h), 419 µM; with H661 lung cancer cells (H661, 48 h) it was 489 µM. The IC50 with H661 lung cancer cells (H661, 72 h) was 366 µM; with H661 lung cancer cells (H661, 96 h), 226 µM. Besides, on recombinant human MMP12, the MMP12 enzyme inhibition is 11.5%.

In general, IC50 refers to the midpoint of a concentration-inhibition curve. Read a high IC50 as weaker potency.
